Measured values taken from US11440884B2, “Compounds, salts thereof and methods for treatment of diseases” (ACADIA PHARMACEUTICALS INC., priority 2017, dated 2022).

Biological target: 5-HT2A receptor (Homo sapiens (Human), UniProt P28223)
Assay: Receptor Selection and Amplification (R-SAT) functional antagonist assay;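 also: Read-out is β-galactosidase marker gene activity with ONPG substrate, measured after five days of growth in 96-well plates holding the test compound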
Settings: not given

Sequence of 5-HT2A receptor (P28223 whole entry): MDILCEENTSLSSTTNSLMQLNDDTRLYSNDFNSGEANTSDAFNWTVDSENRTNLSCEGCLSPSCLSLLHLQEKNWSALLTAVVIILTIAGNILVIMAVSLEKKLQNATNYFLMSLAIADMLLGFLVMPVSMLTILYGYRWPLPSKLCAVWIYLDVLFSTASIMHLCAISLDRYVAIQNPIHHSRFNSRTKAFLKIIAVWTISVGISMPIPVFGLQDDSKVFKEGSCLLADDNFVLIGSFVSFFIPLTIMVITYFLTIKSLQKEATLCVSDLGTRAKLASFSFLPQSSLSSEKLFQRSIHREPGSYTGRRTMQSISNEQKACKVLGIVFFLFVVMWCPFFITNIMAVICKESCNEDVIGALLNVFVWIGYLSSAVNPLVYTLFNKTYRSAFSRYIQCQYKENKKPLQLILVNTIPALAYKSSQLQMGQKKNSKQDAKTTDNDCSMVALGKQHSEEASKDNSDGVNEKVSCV

Compared with CC(C)Oc1ccc(COC(=O)N(Cc2ccc(F)cc2)[C@H]2CCNC[C@H]2F)cc1 (racemic) [3a/3b, [4-(propan-2-yloxy)phenyl]methyl N-[(4-fluorophenyl)methyl]-N-[(3R,4S)-3-fluoropiperidin-4-yl]carbamate (3a) and [4-(propan-2-yloxy)phenyl]methyl N-[(4-fluorophenyl)methyl]-N-[(3S,4R)-3-fluoropiperidin-4-yl]carbamate (3b)], CC(C)COc1ccc(COC(=O)N(Cc2ccc(F)cc2)[C@H]2CCNC[C@H]2F)cc1 (racemic) [5a/5b, [4-(2-methylpropoxy)phenyl]methyl N-[(4-fluorophenyl)methyl]-N-[(3R,4S)-3-fluoropiperidin-4-yl]carbamate (5a) and [4-(2-methylpropoxy)phenyl]methyl N-[(4-fluorophenyl)methyl]-N-[(3S,4R)-3-fluoropiperidin-4-yl]carbamate (5b)] is 2.5-fold higher in Ki: 100 pM for the first, 251 pM for the second. The first binds more tightly here.

First: CC(C)Oc1ccc(COC(=O)N(Cc2ccc(F)cc2)[C@H]2CCN(C)C[C@H]2F)cc1 (racemic) [4a/4b, [4-(propan-2-yloxy)phenyl]methyl N-[(3R,4S)-3-fluoro-1-methylpiperidin-4-yl]-N-[(4-fluorophenyl)methyl]carbamate (4a) and [4-(propan-2-yloxy)phenyl]methyl N-[(3S,4R)-3-fluoro-1-methylpiperidin-4-yl]-N-[(4-fluorophenyl)methyl]carbamate (4b)]
Second: CC(C)COc1ccc(COC(=O)N(Cc2ccc(F)cc2)[C@H]2CCN(C)C[C@H]2F)cc1 (racemic) [6a/6b, [4-(2-methylpropoxy)phenyl]methyl N-[(3R,4S)-3-fluoro-1-methylpiperidin-4-yl]-N-[(4-fluorophenyl)methyl]carbamate (6a) and [4-(2-methylpropoxy)phenyl]methyl N-[(3S,4R)-3-fluoro-1-methylpiperidin-4-yl]-N-[(4-fluorophenyl)methyl]carbamate (6b)]
The Ki of the first is 2.5-fold lower: 100 pM for the first, 251 pM for the second.

Going from CC(C)COc1ccc(CCOC(=O)N(Cc2ccc(F)cc2)[C@H]2CCNC[C@H]2F)cc1 (racemic) [9a/9b, 2-[4-(2-methylpropoxy)phenyl]ethyl N-[(4-fluorophenyl)methyl]-N-[(3R,4S)-3-fluoropiperidin-4-yl]carbamate; trifluoroacetic acid (9a) and 2-[4-(2-methylpropoxy)phenyl]ethyl N-[(4-fluorophenyl)methyl]-N-[(3S,4R)-3-fluoropiperidin-4-yl]carbamate; trifluoroacetic acid (9b)] to CC(C)COc1ccc(CCOC(=O)N(Cc2ccc(F)cc2)[C@H]2CCN(C)C[C@H]2F)cc1 (racemic) [10a/10b, 2-[4-(2-methylpropoxy)phenyl]ethyl N-[(3R,4S)-3-fluoro-1-methylpiperidin-4-yl]-N-[(4-fluorophenyl)methyl]carbamate (10a) and 2-[4-(2-methyl-propoxy)phenyl]ethyl N-[(3S,4R)-3-fluoro-1-methylpiperidin-4-yl]-N-[(4-fluorophenyl)-methyl]carbamate (10b)], the Ki falls from 63100 pM to 15800 pM (4-fold).

CC(C)Oc1ccc(COC(=O)N(Cc2ccc(F)cc2)[C@H]2CCN3CCC[C@H]3C2)cc1 [Compound 18, [4-(propan-2-yloxy)phenyl]methyl N-[(7S,8aS)-octahydroindolizin-7-yl]-N-[(4-fluorophenyl)methyl]carbamate] gave a Ki of 15.8 pM.

Compared with CC(C)Oc1ccc(COC(=O)N(Cc2ccc(F)cc2F)C2CCNCC2)cc1.O=C(O)C(F)(F)F [Compound 11, [4-(propan-2-yloxy)phenyl]methyl N-[(2,4-difluorophenyl)methyl]-N-(piperidin-4-yl)carbamate], CCOc1ccc(CC(=O)N(Cc2ccc(F)cc2F)C2CCN(C)CC2)cc1.O=C(O)C(F)(F)F [Compound 23, N-(2,4-difluorobenzyl)-2-(4-ethoxyphenyl)-N-(1-methylpiperidin-4-yl)acetamide; trifluoroacetic acid] is lower in “5-HT2a pKi” value: 9.6 for the first, 7.8 for the second.

Same assay, conditions: R-SAT, transfected NIH3T3 cells; guidance: high affinity pKi≥8.4, moderate affinity pKi≥7.7

CC(C)Oc1ccc(COC(=O)N(Cc2ccc(Cl)cc2)C2CCN(C)CC2)cc1 [Compound 1, [4-(propan-2-yloxy)phenyl]methyl N-[(4-chlorophenyl)methyl]-N-(1-methylpiperidin-4-yl)carbamate] and CC(C)Oc1ccc(COC(=O)N(Cc2ccc(F)cc2)C2CCN(C)CC2)cc1 [Compound 12, [4-(propan-2-yloxy)phenyl]methyl N-[(4-fluorophenyl)methyl]-N-(1-methylpiperidin-4-yl)carbamate] are within 0.2 log units of each other in “5-HT2a pKi” value: 9.7 for the first, 9.6 for the second.

Compared with CC(C)COc1ccc(COC(=O)N(Cc2ccc(F)cc2)C2CCN(C)CC2)cc1 [Compound 2, [4-(2-methylpropoxy)phenyl]methyl N-[(4-fluorophenyl)methyl]-N-(1-methylpiperidin-4-yl)carbamate], CC(C)COc1ccc(COC(=O)N(Cc2ccc(F)cc2F)C2CCN(C)CC2)cc1 [Compound 14, [4-(2-methylpropoxy)phenyl]methyl N-[(2,4-difluorophenyl)methyl]-N-(1-methylpiperidin-4-yl)carbamate] is lower in “5-HT2a pKi” value: 9.9 for the first, 7.6 for the second.

Compared with CC(C)Oc1ccc(COC(=O)N(Cc2ccc(F)cc2F)C2CCN(C)CC2)cc1 [Compound 13, [4-(propan-2-yloxy)phenyl]methyl N-[(2,4-difluorophenyl)methyl]-N-(1-methylpiperidin-4-yl)carbamate], COc1ccc(COC(=O)N(Cc2ccc(F)cc2F)C2CCN(C)CC2)cc1 [Compound 15, (4-methoxyphenyl)methyl N-[(2,4-difluorophenyl)methyl]-N-(1-methylpiperidin-4-yl)carbamate] is lower in “5-HT2a pKi” value: 9.9 for the first, 9.3 for the second.

First: COc1ccc(CSC(=O)N(Cc2ccc(F)cc2F)C2CCN(C)CC2)cc1 [Compound 16, N-[(2,4-difluorophenyl)methyl]-N-(1-methylpiperidin-4-yl){[(4-methoxyphenyl)methyl]sulfanyl}formamide]
Second: CC(C)Oc1ccc(CC(=O)N(Cc2ccc(F)cc2F)C2CCN(C)CC2)cc1.O=C(O)C(F)(F)F [Compound 19, N-[(2,4-difluorophenyl)methyl]-N-(1-methylpiperidin-4-yl)-2-[4-(propan-2-yloxy)phenyl]acetamide; trifluoroacetic acid]
The “5-HT2a pKi” value of the first is lower: 7.6 for the first, 8.3 for the second.

Going from CC(C)Oc1ccc(C(OC(=O)N(Cc2ccc(F)cc2)C2CCN(C)CC2)C(F)(F)F)cc1 (stereo not drawn) [Compound 17, 2,2,2-trifluoro-1-[4-(propan-2-yloxy)phenyl]ethyl N-[(4-fluorophenyl)methyl]-N-(1-methylpiperidin-4-yl)carbamate] to CC(C)COc1ccc(CC(=O)N(Cc2ccc(F)cc2)C2CCN(C)CC2)c(F)c1.O=C(O)C(F)(F)F [Compound 20, 2-[2-fluoro-4-(2-methylpropoxy)phenyl]-N-[(4-fluorophenyl)methyl]-N-(1-methylpiperidin-4-yl)acetamide; trifluoroacetic acid], the “5-HT2a pKi” value rises from 7.5 to 8.2.

Going from CC(C)COc1ccc(CC(=O)N(Cc2ccc(F)cc2)C2CCN(C)CC2)cc1F.O=C(O)C(F)(F)F [Compound 21, 2-[3-fluoro-4-(2-methylpropoxy)phenyl]-N-[(4-fluorophenyl)methyl]-N-(1-methylpiperidin-4-yl)acetamide; trifluoroacetic acid] to CC(C)COc1ccc(CC(=O)N(Cc2ccc(F)cc2F)C2CCN(C)CC2)cc1.O=C(O)C(F)(F)F [Compound 22, N-(2,4-difluorobenzyl)-2-(4-isobutoxyphenyl)-N-(1-methylpiperidin-4-yl)acetamide; trifluoroacetic acid], the “5-HT2a pKi” value falls from 8.6 to 8.2.
